Source: ChEMBL document CHEMBL1201862, “PubChem BioAssay data set” (2004)
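Five concentrations, 48 hours, 96-well plates. The concentration for 50% growth inhibition is given as GI50.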 Activity calls are given as the source filed them. No stated cut-off is given here; in the data, active = GI50 up to about 1.1 µM and inactive = higher.

What was measured:
Test in all cases: DTP human tumour cell line panel, 48 h
CAKI-1 = test system: CAKI-1
UO-31 = test system: UO-31
SF-295 = test system: SF-295
LOX IMVI = test system: LOX IMVI
TK-10 = test system: TK-10
SK-MEL-28 = test system: SK-MEL-28
HT-29 = test system: HT-29
SNB-75 = test system: SNB-75
SK-MEL-2 = test system: SK-MEL-2
MOLT-4 = test system: MOLT-4
IGROV-1 = test system: IGROV-1
NCI/ADR-RES = test system: NCI/ADR-RES
SF-268 = test system: SF-268
OVCAR-8 = test system: OVCAR-8
M14 = test system: M14
KM12 = test system: KM12
UACC-257 = test system: UACC-257
HCT-15 = test system: HCT-15
A549 = test system: A549
OVCAR-5 = test system: OVCAR-5

Structure (SMILES)	GI50 (CAKI-1)	GI50 (UO-31)	GI50 (SF-295)	GI50 (LOX IMVI)	GI50 (TK-10)	GI50 (SK-MEL-28)	GI50 (HT-29)	GI50 (SNB-75)	GI50 (SK-MEL-2)	GI50 (MOLT-4)	GI50 (IGROV-1)	GI50 (NCI/ADR-RES)	GI50 (SF-268)	GI50 (OVCAR-8)	GI50 (M14)	GI50 (KM12)	GI50 (UACC-257)	GI50 (HCT-15) [µM]	GI50 (A549)	GI50 (OVCAR-5)
COC(=O)c1cc(NC2OCC(OC(C)=O)C(OC(C)=O)C2OC(C)=O)nc(SC)c1C(=O)OC (stereo not given)	> 100 µM (inactive)	> 100 µM (inactive)	> 100 µM (inactive)	> 100 µM (inactive)	> 100 µM (inactive)	> 100 µM (inactive)	> 100 µM (inactive)	49.9 µM (inactive)	> 100 µM (inactive)	> 100 µM (inactive)	> 100 µM (inactive)	> 100 µM (inactive)	> 100 µM (inactive)	> 100 µM (inactive)	> 100 µM (inactive)	> 100 µM (inactive)	> 100 µM (inactive)	> 100	> 100 µM (inactive)	> 100 µM (inactive)
COC(=O)c1ccccc1/N=C(/NC1CCCCCC1)NS(=O)(=O)c1ccc(C)cc1	74.5 µM (inactive)	> 100 µM (inactive)	26.4 µM (inactive)	> 100 µM (inactive)	> 100 µM (inactive)	> 100 µM (inactive)	> 100 µM (inactive)	> 100 µM (inactive)	> 100 µM (inactive)	> 100 µM (inactive)	> 100 µM (inactive)	> 100 µM (inactive)	> 100 µM (inactive)	> 100 µM (inactive)	> 100 µM (inactive)	> 100 µM (inactive)	> 100 µM (inactive)	> 100	> 100 µM (inactive)	> 100 µM (inactive)
C1CC2=C(C1)[Se]C(=C1Sc3nsnc3S1)[Se]2	> 100 µM (inactive)	> 100 µM (inactive)	> 100 µM (inactive)	> 100 µM (inactive)	> 100 µM (inactive)	> 100 µM (inactive)	> 100 µM (inactive)	> 100 µM (inactive)	> 100 µM (inactive)	> 100 µM (inactive)	> 100 µM (inactive)	> 100 µM (inactive)	> 100 µM (inactive)	> 100 µM (inactive)	> 100 µM (inactive)	> 100 µM (inactive)	> 100 µM (inactive)	48.3	> 100 µM (inactive)	> 100 µM (inactive)
